Experimental data from PubChem BioAssay AID1745844 (Carcinogenic Potency Database (CPDB), 2022).

System: rodent lifetime carcinogenesis bioassay, tumor incidence TD50
Experiment: carcinogenic potency in animals, long-term in vivo studies, CPDB compilation (AID 1745844)
Conditions: rat, strain Fischer 344, in drinking water, study length 104 weeks

In the case of `Cc1ccc(S(=O)(=O)Oc2ccc(N=Nc3ccc(-c4ccc(N=Nc5c(O)ccc6cc(S(=O)(=O)O)cc(S(=O)(=O)O)c56)c(C)c4)cc3C)cc2)cc1`, the TD50 (females, site: Zymbal's gland, lesion: adenoma + carcinoma, dosed 98 weeks) is reported as 15.6 mg/kg/day, the TD50 (females, site: Zymbal's gland, lesion: adenoma, dosed 98 weeks) is reported as 65.4 mg/kg/day and the TD50 (females, site: Zymbal's gland, lesion: carcinoma, dosed 98 weeks) is reported as 18 mg/kg/day. For the same molecule, the TD50 (females, site: adrenal medulla, lesion: pheochromocytoma, benign, dosed 98 weeks) was 38.3 mg/kg/day, the TD50 (females, site: adrenal medulla, lesion: pheochromocytoma, malignant + pheochromocytoma, benign, dosed 98 weeks) was 31.6 mg/kg/day and the TD50 (females, site: any site (literature study), lesion: several types, types named in the paper, dosed 98 weeks) was 2.31 mg/kg/day. The TD50 (females, site: clitoral gland + colon + duodenum + jejunum + liver + lung + pharynx + rectum + skin + tongue + Zymbal's gland, lesion: adenoma + adenoma, bilateral + carcinoma + carcinoma, bilateral + adenomatous polyp + mucinous cystadenocarcinoma + hepatocellular c, dosed 98 weeks) was 3.11 mg/kg/day, the TD50 (females, site: clitoral gland, lesion: adenoma + adenoma, bilateral + carcinoma + carcinoma, bilateral, dosed 98 weeks) was 4.75 mg/kg/day and the TD50 (females, site: clitoral gland, lesion: adenoma + adenoma, bilateral, dosed 98 weeks) was 11.9 mg/kg/day. The TD50 (females, site: clitoral gland, lesion: carcinoma + carcinoma, bilateral, dosed 98 weeks) was 8.97 mg/kg/day, the TD50 (females, site: colon + rectum, lesion: adenomatous polyp + mucinous cystadenocarcinoma, dosed 98 weeks) was 136 mg/kg/day and the TD50 (females, site: duodenum + jejunum, lesion: adenomatous polyp + mucinous cystadenocarcinoma, dosed 98 weeks) was 213 mg/kg/day. For the same molecule, the TD50 (females, site: liver, lesion: hepatocellular adenoma + hepatocellular carcinoma + neoplastic nodule, dosed 98 weeks) was 14.2 mg/kg/day, the TD50 (females, site: liver, lesion: hepatocellular carcinoma + neoplastic nodule, dosed 98 weeks) was 14.2 mg/kg/day and the TD50 (females, site: liver, lesion: hepatocellular carcinoma, dosed 98 weeks) was 42.5 mg/kg/day. The TD50 (females, site: liver, lesion: neoplastic nodule, dosed 98 weeks) was 18 mg/kg/day, the TD50 (females, site: lung, lesion: alveolar/bronchiolar adenoma + alveolar/bronchiolar carcinoma, dosed 98 weeks) was 23.6 mg/kg/day and the TD50 (females, site: lung, lesion: alveolar/bronchiolar adenoma, dosed 98 weeks) was 26.3 mg/kg/day. The TD50 (females, site: mammary gland, lesion: adenocarcinoma, dosed 98 weeks) was 40.6 mg/kg/day, the TD50 (females, site: mammary gland, lesion: adenoma, dosed 98 weeks) was 67 mg/kg/day and the TD50 (females, site: mammary gland, lesion: fibroadenoma, dosed 98 weeks) was 11.4 mg/kg/day. The TD50 (females, site: multiple organs, lesion: leukemia + mononuclear-cell leukemia, dosed 98 weeks) was 9.44 mg/kg/day, the TD50 (females, site: pharynx + tongue, lesion: squamous-cell carcinoma + squamous-cell papilloma, dosed 98 weeks) was 31.4 mg/kg/day and the TD50 (females, site: pharynx + tongue, lesion: squamous-cell carcinoma, dosed 98 weeks) was 227 mg/kg/day. It also gave a TD50 (females, site: pharynx + tongue, lesion: squamous-cell papilloma, dosed 98 weeks) of 36.5 mg/kg/day, a TD50 (females, site: pharynx, lesion: squamous-cell papilloma, dosed 98 weeks) of 72.4 mg/kg/day and a TD50 (females, site: pituitary gland, lesion: pars distalis adenoma, dosed 98 weeks) of 11.1 mg/kg/day. The TD50 (females, site: skin, lesion: basal-cell adenoma + basal-cell carcinoma, dosed 98 weeks) was 21.9 mg/kg/day, the TD50 (females, site: skin, lesion: basal-cell adenoma, dosed 98 weeks) was 28.2 mg/kg/day and the TD50 (females, site: skin, lesion: squamous-cell carcinoma + squamous-cell papilloma, dosed 98 weeks) was 49.7 mg/kg/day. It also gave a TD50 (females, site: skin, lesion: squamous-cell carcinoma, dosed 98 weeks) of 57.3 mg/kg/day, a TD50 (females, site: subcutaneous tissue, lesion: fibrosarcoma + fibroma, dosed 98 weeks) of 78.2 mg/kg/day and a TD50 (females, site: thyroid gland, lesion: c-cell adenoma, dosed 98 weeks) of 48.7 mg/kg/day. For the same molecule, the TD50 (females, site: thyroid gland, lesion: follicular-cell adenoma + follicular-cell carcinoma, dosed 98 weeks) was 28.8 mg/kg/day, the TD50 (females, site: thyroid gland, lesion: follicular-cell adenoma, dosed 98 weeks) was 53.5 mg/kg/day and the TD50 (females, site: thyroid gland, lesion: follicular-cell carcinoma, dosed 98 weeks) was 68.9 mg/kg/day. The TD50 (females, site: tongue, lesion: squamous-cell carcinoma + squamous-cell papilloma, dosed 98 weeks) was 65.7 mg/kg/day, the TD50 (females, site: tongue, lesion: squamous-cell papilloma, dosed 98 weeks) was 75 mg/kg/day and the TD50 (females, site: uterus, lesion: endometrial stromal polyp + endometrial stromal sarcoma, dosed 98 weeks) was 16.4 mg/kg/day. For the same molecule, the TD50 (females, site: uterus, lesion: endometrial stromal polyp, dosed 98 weeks) was 20.1 mg/kg/day, the TD50 (males, site: Zymbal's gland, lesion: adenoma + carcinoma, dosed 104 weeks) was 27 mg/kg/day and the TD50 (males, site: Zymbal's gland, lesion: carcinoma, dosed 104 weeks) was 29.8 mg/kg/day. The TD50 (males, site: adrenal medulla, lesion: pheochromocytoma benign, bilateral + pheochromocytoma, malignant + pheochromocytoma, benign, dosed 104 weeks) was 5.94 mg/kg/day, the TD50 (males, site: adrenal medulla, lesion: pheochromocytoma, benign, dosed 104 weeks) was 6.69 mg/kg/day and the TD50 (males, site: any site (literature study), lesion: several types, types named in the paper, dosed 104 weeks) was 3.23 mg/kg/day. The TD50 (males, site: liver + skin + Zymbal's gland, lesion: hepatocellular carcinoma + neoplastic nodule + basal-cell adenoma + basal-cell carcinoma + keratoacanthoma + sebaceous gland carci, dosed 104 weeks) was 2.8 mg/kg/day, the TD50 (males, site: liver, lesion: hepatocellular adenoma + hepatocellular carcinoma + neoplastic nodule, dosed 104 weeks) was 7.02 mg/kg/day and the TD50 (males, site: liver, lesion: hepatocellular carcinoma + neoplastic nodule, dosed 104 weeks) was 7.02 mg/kg/day. The TD50 (males, site: liver, lesion: hepatocellular carcinoma, dosed 104 weeks) was 20.2 mg/kg/day, the TD50 (males, site: liver, lesion: neoplastic nodule, dosed 104 weeks) was 10.4 mg/kg/day and the TD50 (males, site: lung, lesion: alveolar/bronchiolar adenoma + alveolar/bronchiolar carcinoma, dosed 104 weeks) was 47.2 mg/kg/day. For the same molecule, the TD50 (males, site: lung, lesion: alveolar/bronchiolar adenoma, dosed 104 weeks) was 39 mg/kg/day, the TD50 (males, site: multiple organs, lesion: mononuclear-cell leukemia, dosed 104 weeks) was 12.3 mg/kg/day and the TD50 (males, site: pharynx + tongue, lesion: squamous-cell papilloma, dosed 104 weeks) was 71 mg/kg/day. It also gave a TD50 (males, site: skin, lesion: basal-cell adenoma + basal-cell carcinoma, dosed 104 weeks) of 3.3 mg/kg/day, a TD50 (males, site: skin, lesion: basal-cell adenoma, dosed 104 weeks) of 3.58 mg/kg/day and a TD50 (males, site: skin, lesion: basal-cell carcinoma, dosed 104 weeks) of 22.8 mg/kg/day. It also gave a TD50 (males, site: skin, lesion: keratoacanthoma, dosed 104 weeks) of 20.4 mg/kg/day, a TD50 (males, site: skin, lesion: sebaceous gland carcinoma + sebaceous adenoma, dosed 104 weeks) of 23.4 mg/kg/day and a TD50 (males, site: skin, lesion: squamous-cell carcinoma + squamous-cell papilloma, dosed 104 weeks) of 12.7 mg/kg/day. It also gave a TD50 (males, site: skin, lesion: squamous-cell carcinoma, dosed 104 weeks) of 16.2 mg/kg/day and a TD50 (males, site: testis, lesion: interstitial-cell adenoma, bilateral + interstitial-cell adenoma, dosed 104 weeks) of 3.39 mg/kg/day.
